Results: patent US12077503B2, “Substituted cyclic amides and their use as herbicides” (FMC CORPORATION, priority 2015, dated 2024)

Experiments:
Format in all cases: in vivo
Kochia (Kochia scoparia) [1] = assay: Test A preemergence
In short: (§1)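 Seeded soil received test chemicals as a preemergence directed spray, and seedlings at one to two leaves, 2–10 cm tall, received them postemergence, in a non-phytotoxic, surfactant-containing solvent mixture. Pots were held in a greenhouse for approximately 10 d, then rated for injury from 0, no effect, to 100, complete control.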

[2] = tested on: barnyardgrass (Echinochloa crus-galli); assay: Test A preemergence
In short: as §1

[3] = tested on: giant foxtail (Setaria faberii); assay: Test A preemergence
In short: as §1

[4] = tested on: pigweed (Amaranthus retroflexus); assay: Test A preemergence
[5] = tested on: ragweed (common ragweed, Ambrosia elatior); assay: Test A preemergence
In short: as §1

[6] = tested on: ryegrass, Italian (Italian ryegrass, Lolium multiflorum); assay: Test A preemergence
In short: as §1

[7] = tested on: Galium (catchweed bedstraw, Galium aparine); assay: Test A postemergence; conditions: postemergence, 0 to 100 scale (0 no effect, 100 complete control)
In short: as §1

Kochia (Kochia scoparia) [8] = assay: Test A postemergence; conditions: postemergence, 0 to 100 scale (0 no effect, 100 complete control)
In short: as §1

[9] = tested on: barnyardgrass (Echinochloa crus-galli); assay: Test A postemergence; conditions: postemergence, 0 to 100 scale (0 no effect, 100 complete control)
In short: as §1

[10] = tested on: blackgrass (Alopecurus myosuroides); assay: Test A postemergence; conditions: postemergence, 0 to 100 scale (0 no effect, 100 complete control)
In short: as §1

corn (Zea mays) = assay: Test A postemergence; conditions: postemergence, 0 to 100 scale (0 no effect, 100 complete control)
In short: as §1

[11] = tested on: giant foxtail (Setaria faberii); assay: Test A postemergence; conditions: postemergence, 0 to 100 scale (0 no effect, 100 complete control)
In short: as §1

[12] = tested on: pigweed (Amaranthus retroflexus); assay: Test A postemergence; conditions: postemergence, 0 to 100 scale (0 no effect, 100 complete control)
In short: as §1

[13] = tested on: ragweed (common ragweed, Ambrosia elatior); assay: Test A postemergence; conditions: postemergence, 0 to 100 scale (0 no effect, 100 complete control)
In short: as §1

[14] = tested on: ryegrass, Italian (Italian ryegrass, Lolium multiflorum); assay: Test A postemergence; conditions: postemergence, 0 to 100 scale (0 no effect, 100 complete control)
In short: as §1

[15] = tested on: wheat (Triticum aestivum); assay: Test A postemergence; conditions: postemergence, 0 to 100 scale (0 no effect, 100 complete control)
In short: as §1

[16] = tested on: barnyardgrass (Echinochloa crus-galli); assay: Test B flooded paddy test; conditions: Flood, 250 g ai/ha; 0 to 100 scale where 0 is no effect and 100 is complete control; 13 to 15 d
In short: (§2)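 Greenhouse paddy pots with 2-leaf stage plants received compound by direct addition to floodwater 3 cm deep, kept at that level. Scored visually at 13–15 d versus controls (0 no effect; 100 complete control).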

[17] = tested on: ducksalad (Heteranthera limosa); assay: Test B flooded paddy test; conditions: Flood, 250 g ai/ha; 0 to 100 scale where 0 is no effect and 100 is complete control; 13 to 15 d
In short: as §2

rice (Oryra sativa) = assay: Test B flooded paddy test; conditions: Flood, 250 g ai/ha; 0 to 100 scale where 0 is no effect and 100 is complete control; 13 to 15 d
In short: as §2

[18] = tested on: sedge, umbrella (small-flower umbrella sedge, Cyperus difformis); assay: Test B flooded paddy test; conditions: Flood, 250 g ai/ha; 0 to 100 scale where 0 is no effect and 100 is complete control; 13 to 15 d
In short: as §2

[19] = 125 g ai/ha, Preemergence, visual injury after approximately 10 d, 0 to 100 scale where 0 is no effect and 100 is complete control
[20] = 500 g ai/ha, preemergence, 0 to 100 scale, 0 = no effect, 100 = complete control
[21] = 125 g ai/ha, visual rating after approx. 10 d
[22] = 500 g ai/ha, visual injury, approx. 10 d

SMILES: CC(C)Oc1cccc(C2CN(C)C(=O)C2C(=O)Nc2ccccc2S(C)(=O)=O)c1 (stereo not drawn) [Compound 653]
- Plant response rating, Kochia (Kochia (Kochia scoparia) [1]; [19]): 0
- Plant response rating, Kochia (Kochia (Kochia scoparia) [1]; [20]): 70
- Plant response rating, Barnyardgrass [2, 19]: 90
- Plant response rating, Barnyardgrass [2, 20]: 90
- Plant response rating, Foxtail, Giant [3, 19]: 90
- Plant response rating, Foxtail, Giant [3, 20]: 100
- Plant response rating, Pigweed [4, 19]: 70
- Plant response rating, Pigweed [4, 20]: 90
- Plant response rating, Ragweed [5, 19]: 50
- Plant response rating, Ragweed [5, 20]: 80
- Plant response rating, Ryegrass, Italian [6, 19]: 70
- Plant response rating, Ryegrass, Italian [6, 20]: 70
- Plant response rating, Galium [7, 21]: 40
- Plant response rating, Galium [7, 22]: 50
- Plant response rating, Kochia (Kochia (Kochia scoparia) [8]; [21]): 0
- Plant response rating, Kochia (Kochia (Kochia scoparia) [8]; [22]): 0
- Plant response rating, Barnyardgrass [9, 21]: 60
- Plant response rating, Barnyardgrass [9, 22]: 90
- Plant response rating, Blackgrass [10, 21]: 50
- Plant response rating, Blackgrass [10, 22]: 70
- Plant response rating, Corn (corn (Zea mays); [21]): 0
- Plant response rating, Corn (corn (Zea mays); [22]): 30
- Plant response rating, Foxtail, Giant [11, 21]: 60
- Plant response rating, Foxtail, Giant [11, 22]: 90
- Plant response rating, Pigweed [12, 21]: 0
- Plant response rating, Pigweed [12, 22]: 0
- Plant response rating, Ragweed [13, 21]: 0
- Plant response rating, Ragweed [13, 22]: 0
- Plant response rating, Ryegrass, Italian [14, 21]: 40
- Plant response rating, Ryegrass, Italian [14, 22]: 60
- Plant response rating, Wheat [15, 21]: 30
- Plant response rating, Wheat [15, 22]: 60
- Plant response rating, Barnyardgrass [16]: 30
- Plant response rating, Ducksalad [17]: 40
- Plant response rating, Rice (rice (Oryra sativa)): 0
- Plant response rating, Sedge, Umbrella [18]: 0
